One assay concerns the target T1, NA transporter (Rattus norvegicus, UniProt Q63380).
T1 construct: from tissue; host or cells: rat brain synaptosomes (P2 fraction) from hypothalamus
The assay is described as follows: noradrenalin uptake inhibition in rat brain synaptosomes (hypothalamus), [3H]-NA. In kind it is biochemical. The source says:
a) Method for Determining Noradrenalin and 5-HT Uptake Inhibition:
Synaptosomes from rat brain regions are freshly isolated for in vitro studies, as described in the publication “The isolation of nerve endings from brain” by E. G. Gray and V. P. Whittaker, J. Anatomy 96, pages 79-88, 1962. The corresponding literature description is hereby introduced as a reference and is deemed to be part of the disclosure.
The tissue (hypothalamus for the determination of noradrenalin uptake inhibition and medulla and pons for the determination of 5-HT uptake inhibition) is homogenised in ice-cooled 0.32 M sucrose (100 mg of tissue/1 mL) in a glass homogeniser with Teflon pestle using five complete up and down strokes at 840 revolutions/minute.
The homogenate is centrifuged at 4° C. for 10 minutes at 1000 g. After subsequent centrifugation at 17000 g for 55 minutes, the synaptosomes (P2 fraction) are obtained, which are resuspended in 0.32 M […] (0.5 mL/100 mg of original weight).
The particular uptake is measured in a 96-well microtitre plate. The volume is 250 μl and the incubation proceeds at room temperature (approx. 20-25° C.) under an O2 atmosphere.
The incubation time is 7.5 minutes for [^3H]-NA and 5 minutes for [^3H]-5-HT. The 96 samples are then filtered through a Unifilter GF/B® microtitre plate (Packard) and washed with 200 mL of incubated buffer using a “Brabdel MPXRI-96T Cell-Harvester”. The Unifilter GF/B plate is dried for 1 hour at 55° C. The plate is then sealed with a Back Seal® (Packard) and 35 μl of scintillation fluid are added per well (Ultima Gold®, Packard). After sealing with a top Seal® (Packard) and establishing an equilibrium (around 5 hours), radioactivity is determined in a “Trilux 1450 Microbeta” (Wallac).
The quantity of protein used in the above determination corresponds to the values known from the literature, as for example described in “Protein measurement with the folin phenol reagent”, Lowry et al., J. Biol. Chem., 193, 265-275, 1951.
A detailed description of the method may additionally be found in the literature, for example in M. Ch. Frink, H.-H. Hennies, W. Engelberger, M. Haurand and B. Wilffert (1996) Arzneim.-Forsch./Drug Res. 46 (III), 11, 1029-1036.

The target in a further assay is T2, 5-HT transporter (Rattus norvegicus, UniProt P31652).
T2 construct: from tissue; host or cells: rat brain synaptosomes (P2 fraction) from medulla and pons
The experiment in a line: 5-HT uptake inhibition in rat brain synaptosomes (medulla and pons), [3H]-5-HT. In kind it is biochemical. The essentials:
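Freshly isolated P2 synaptosomes taken from rat hypothalamus (NA) or medulla/pons (5-HT) were incubated at room temperature under O2 with [3H]-NA for 7.5 min or [3H]-5-HT for 5 min. Uptake was measured as filter-retained radioactivity by scintillation counting.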

T1 sequence (Q63380 1-617): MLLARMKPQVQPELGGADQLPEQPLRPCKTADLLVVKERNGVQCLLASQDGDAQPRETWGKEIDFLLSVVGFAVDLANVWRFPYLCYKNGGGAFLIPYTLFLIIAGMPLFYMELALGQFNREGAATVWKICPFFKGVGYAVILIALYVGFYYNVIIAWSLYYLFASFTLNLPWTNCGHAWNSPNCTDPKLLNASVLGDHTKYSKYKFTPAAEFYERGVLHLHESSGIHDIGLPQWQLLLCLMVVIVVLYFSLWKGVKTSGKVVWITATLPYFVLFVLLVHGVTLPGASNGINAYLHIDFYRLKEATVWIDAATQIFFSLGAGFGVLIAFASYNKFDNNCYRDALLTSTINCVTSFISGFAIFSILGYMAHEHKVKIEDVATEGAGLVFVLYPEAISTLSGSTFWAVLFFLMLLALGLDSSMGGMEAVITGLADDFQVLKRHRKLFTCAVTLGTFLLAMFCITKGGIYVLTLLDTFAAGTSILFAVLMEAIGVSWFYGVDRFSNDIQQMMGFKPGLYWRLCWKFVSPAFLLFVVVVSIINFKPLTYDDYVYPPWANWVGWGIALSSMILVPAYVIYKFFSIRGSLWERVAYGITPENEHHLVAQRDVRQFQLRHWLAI
T2 sequence (P31652 whole entry): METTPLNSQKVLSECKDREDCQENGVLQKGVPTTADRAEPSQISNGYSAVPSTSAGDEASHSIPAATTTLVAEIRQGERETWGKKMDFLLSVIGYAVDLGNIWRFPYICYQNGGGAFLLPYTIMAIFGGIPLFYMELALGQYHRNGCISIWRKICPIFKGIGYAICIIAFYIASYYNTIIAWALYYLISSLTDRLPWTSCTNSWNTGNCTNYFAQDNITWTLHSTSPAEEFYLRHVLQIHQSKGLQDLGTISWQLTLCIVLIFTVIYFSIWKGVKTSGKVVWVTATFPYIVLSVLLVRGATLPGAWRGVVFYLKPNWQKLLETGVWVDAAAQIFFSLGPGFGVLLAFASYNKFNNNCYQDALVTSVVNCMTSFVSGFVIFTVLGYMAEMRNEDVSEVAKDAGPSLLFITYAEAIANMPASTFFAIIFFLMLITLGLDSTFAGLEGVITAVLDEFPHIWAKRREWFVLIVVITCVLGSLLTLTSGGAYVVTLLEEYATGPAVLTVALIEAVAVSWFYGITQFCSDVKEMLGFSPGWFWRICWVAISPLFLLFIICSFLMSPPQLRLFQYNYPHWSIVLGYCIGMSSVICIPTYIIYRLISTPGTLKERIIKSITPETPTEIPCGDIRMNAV

Broadly, the inhibition is the relative decrease from the control value, in per cent. High values mean strong suppression, low ones little suppression. On to `Cc1ccc(CN2CC3(CCN(C(=O)Nc4ccc(C)c([N+](=O)[O-])c4)CC3)OC2=O)cc1` [Example 27, 3-(4-methylbenzyl)-2-oxo-1-oxa-3,8-diazaspiro[4.5]decane-8-carboxylic acid (4-methyl-3-nitrophenyl)amide], for which the inhibition at 10 µM against NA transporter worked out at 68%; at 5-HT transporter, 62%.
The matching figures for `O=C(NCc1ccc(F)cc1)N1CCC2(CC1)CN(Cc1ccc(F)c(F)c1)C(=O)O2` [Example 28, 3-(3,4-difluorobenzyl)-2-oxo-1-oxa-3,8-diazaspiro[4.5]decane-8-carboxylic acid 4-fluorobenzylamide]: 53% and 45%.
On to `O=C(Nc1cc(F)ccc1F)N1CCC2(CC1)CN(Cc1cccc(Br)c1)C(=O)O2` [Example 29, 3-(3-bromobenzyl)-2-oxo-1-oxa-3,8-diazaspiro[4.5]decane-8-carboxylic acid (2,5-difluorophenyl)amide], for which the inhibition at 10 µM was determined as 82% against NA transporter and 84% at 5-HT transporter.
In the same order, the values of `N#Cc1cccc(NC(=O)N2CCC3(CC2)CN(Cc2ccccc2)C(=O)O3)c1` [Example 33, 3-benzyl-2-oxo-1-oxa-3,8-diazaspiro[4.5]decane-8-carboxylic acid (3-cyanophenyl)amide] are 93% and 59%.
Regarding `COc1cccc(NC(=O)N2CCC3(CC2)CN(Cc2ccc(F)c(F)c2)C(=O)O3)c1` [Example 35, 3-(3,4-difluorobenzyl)-2-oxo-1-oxa-3,8-diazaspiro[4.5]decane-8-carboxylic acid (3-methoxyphenyl)amide], the inhibition at 10 µM turned out to be 63% against NA transporter and 56% against 5-HT transporter.
In the case of `Cc1ccc(CN2CC3(CCN(C(=O)NCc4ccc(Cl)c(Cl)c4)CC3)OC2=O)cc1` [Example 36, 3-(4-methylbenzyl)-2-oxo-1-oxa-3,8-diazaspiro[4.5]decane-8-carboxylic acid 3,4-dichlorobenzylamide], the inhibition at 10 µM worked out at 60% at NA transporter and 56% against 5-HT transporter.
Take `COc1ccc(NC(=O)N2CCC3(CC2)CN(Cc2ccccc2)C(=O)O3)cc1` [Example 39, 3-benzyl-2-oxo-1-oxa-3,8-diazaspiro[4.5]decane-8-carboxylic acid (4-methoxyphenyl)amide]: the figures for the inhibition at 10 µM on NA transporter and against 5-HT transporter were 76% and 42%, respectively.
Regarding `O=C(NCc1ccc(Cl)c(Cl)c1)N1CCC2(CC1)CN(Cc1cccc(Br)c1)C(=O)O2` [Example 42, 3-(3-bromobenzyl)-2-oxo-1-oxa-3,8-diazaspiro[4.5]decane-8-carboxylic acid 3,4-dichlorobenzylamide], the inhibition at 10 µM at NA transporter stood at 83%; on 5-HT transporter, 60%.
Take `O=C(NCc1ccc(Cl)c(Cl)c1)N1CCC2(CC1)CN(Cc1ccc3ccccc3c1)C(=O)O2` [Example 44, 3-naphthalen-2-ylmethyl-2-oxo-1-oxa-3,8-diazaspiro[4.5]decane-8-carboxylic acid 3,4-dichlorobenzylamide]: the values for the inhibition at 10 µM on NA transporter and against 5-HT transporter were 61% and 57%, respectively.
In the same order, the values of `COc1ccc(NC(=O)N2CCC3(CC2)CN(Cc2ccc4ccccc4c2)C(=O)O3)cc1` [Example 52, 3-naphthalen-2-ylmethyl-2-oxo-1-oxa-3,8-diazaspiro[4.5]decane-8-carboxylic acid (4-methoxyphenyl)amide] are 96% and 94%.
In the same order, the values of `CCOC(=O)c1cccc(NC(=O)N2CCC3(CC2)CN(Cc2ccc(C)cc2)C(=O)O3)c1` [Example 53, 3-{[3-(4-methylbenzyl)-2-oxo-1-oxa-3,8-diazaspiro[4.5]decane-8-carbonyl]amino}benzoic acid ethyl ester] are 81% and 68%.
`O=C(NCCc1ccccc1)N1CCC2(CC1)CN(Cc1ccccc1-c1ccccc1)C(=O)O2` [Example 57, 3-biphenyl-2-ylmethyl-2-oxo-1-oxa-3,8-diazaspiro[4.5]decane-8-carboxylic acid phenethylamide]: the inhibition at 10 µM at NA transporter was 55%; against 5-HT transporter it was 50%.
In the same order, the values of `CCOC(=O)c1cccc(NC(=O)N2CCC3(CC2)CN(Cc2cccc(C#N)c2)C(=O)O3)c1` [Example 61, 3-{[3-(3-cyanobenzyl)-2-oxo-1-oxa-3,8-diazaspiro[4.5]decane-8-carbonyl]amino}benzoic acid ethyl ester] are 77% and 69%.
On to `COc1cccc(NC(=O)N2CCC3(CC2)CN(Cc2ccccc2-c2ccccc2)C(=O)O3)c1` [Example 62, 3-biphenyl-2-ylmethyl-2-oxo-1-oxa-3,8-diazaspiro[4.5]decane-8-carboxylic acid (3-methoxyphenyl)amide], for which the inhibition at 10 µM turned out to be 67% against NA transporter and 57% at 5-HT transporter.
As to `COc1ccc([N+](=O)[O-])cc1CN1CC2(CCN(C(=O)NC(C)c3cccc4ccccc34)CC2)OC1=O` (stereo not drawn) [Example 63, 3-(2-methoxy-5-nitrobenzyl)-2-oxo-1-oxa-3,8-diazaspiro[4.5]decane-8-carboxylic acid (1-naphthalen-1-yl-ethyl)amide], the inhibition at 10 µM on NA transporter came to 41%; against 5-HT transporter it was 84%.
In the case of `O=C1OC2(CCN(Cc3ccc([N+](=O)[O-])cc3)CC2)CN1Cc1ccc(F)c(F)c1` [Example 74, 3-(3,4-difluorobenzyl)-8-(4-nitrobenzyl)-1-oxa-3,8-diazaspiro[4.5]decan-2-one], the inhibition at 10 µM at NA transporter was 57%; against 5-HT transporter it was 66%.
As to `COc1ccc(-c2noc(CN3CCC4(CC3)CN(Cc3ccc(F)c(F)c3)C(=O)O4)n2)cc1` [Example 77, 3-(3,4-difluorobenzyl)-8-[3-(4-methoxyphenyl)-[1,2,4]oxadiazol-5-ylmethyl]-1-oxa-3,8-diazaspiro[4.5]decan-2-one], the inhibition at 10 µM was found to be 64% against NA transporter and 50% against 5-HT transporter.
The matching figures for `O=C1OC2(CCN(Cc3ccc(OC(F)(F)F)cc3)CC2)CN1Cc1ccccc1` [Example 78, 3-benzyl-8-(4-trifluoromethoxybenzyl)-1-oxa-3,8-diazaspiro[4.5]decan-2-one]: 53% and 51%.
`COc1cccc(CN2CC3(CCN(Cc4ccc(Cl)cc4)CC3)OC2=O)c1` [Example 79, 8-(4-chlorobenzyl)-3-(3-methoxybenzyl)-1-oxa-3,8-diazaspiro[4.5]decan-2-one]: the inhibition at 10 µM was 57% against NA transporter and 67% against 5-HT transporter.
In the same order, the values of `Cc1csc(NC(=O)CN2CCC3(CC2)CN(Cc2ccc(F)c(F)c2)C(=O)O3)c1C#N` [Example 80, N-(3-cyano-4-methylthiophen-2-yl)-2-[3-(3,4-difluorobenzyl)-2-oxo-1-oxa-3,8-diazaspiro[4.5]dec-8-yl]acetamide] are 45% and 47%.
Regarding `O=C(CN1CCC2(CC1)CN(Cc1ccccc1F)C(=O)O2)Nc1nc(-c2ccccc2)cs1` [Example 86, 2-[3-(2-fluorobenzyl)-2-oxo-1-oxa-3,8-diazaspiro[4.5]dec-8-yl]-N-(4-phenylthiazol-2-yl)acetamide], the inhibition at 10 µM amounted to 79% on NA transporter and 56% against 5-HT transporter.
The matching figures for `O=C(CN1CCC2(CC1)CN(Cc1ccccc1C(F)(F)F)C(=O)O2)Nc1ccc(OC(F)(F)F)cc1` [Example 87, 2-[2-oxo-3-(2-trifluoromethylbenzyl)-1-oxa-3,8-diazaspiro[4.5]dec-8-yl]-N-(4-trifluoromethoxyphenyl)acetamide]: 59% and 72%.
Turning to `N#Cc1ccc(CN2CC3(CCN(Cc4cccc([N+](=O)[O-])c4)CC3)OC2=O)cc1` [Example 89, 4-[8-(3-nitrobenzyl)-2-oxo-1-oxa-3,8-diazaspiro[4.5]dec-3-ylmethyl]benzonitrile], the inhibition at 10 µM against NA transporter was found to be 57%; on 5-HT transporter, 63%.
In the same order, the values of `O=C1OC2(CCN(C(=O)c3ccc(-c4ccccc4)cc3)CC2)CN1Cc1cccc(Br)c1` [Example 104, 8-(biphenyl-4-carbonyl)-3-(3-bromobenzyl)-1-oxa-3,8-diazaspiro[4.5]decan-2-one] are 73% and 89%.

Values taken from patent US8153795B2, “Substituted 1-oxa-3,8-diazaspiro[4.5]-decan-2-one-compounds and the use thereof for producing drugs” (Gruenenthal GmbH, priority 2005, dated 2012).
